Results on one molecule are retold here after publication PMC12811501, “A plant-derived antimicrobial peptide with multiple mechanisms of action exhibiting antibacterial and antibiofilm activities comparable to or superior to polymyxin B” (Current Research in Microbial Sciences, 2025).

The test system of series [1] is Acinetobacter baumannii pre-formed biofilm. Briefly: microbe, parasite or virus in culture. The settings on record: for MBC: 24 h. It counts as cell-based. On the procedure:
For the biofilm eradication assay the difference was at the beginning of the experiments when bacteria were pre-cultured for 24 h or 72 h in MHB with a starting OD600 = 0.01. Then bacterial suspensions were removed from the wells followed by washing three times with 200 µl of 1/2 MHB. Subsequently fresh 1/10 MHB was added to the wells containing the respective dilutions of NCR169C17–38, meropenem or polymixin B and the treatment lasted either 3 h or 24 h. Experiments were done in three biological replicates.
To assess whether the NCR169C17–38 peptide or the tested antibiotics could eradicate pre-formed biofilms, A. baumannii was first cultured in MHB for 24 h, then treated with NCR169C17–38, meropenem or polymyxin B for either 3 h or 24 h, using the same concentration range as in the previous experiment. Both bacterial survival within the pre-formed biofilm and the amount of residual biofilm were assessed. […] In contrast, neither of the two antibiotics completely eliminated the bacteria within the tested concentration range. […] This 24 h of treatment was repeated on mature biofilm (pre-formed for 72 h) and the results were very similar (Supplementary Fig. 1.).

Series [2] concerns Acinetobacter baumannii. Briefly: microbe, parasite or virus in culture. Format: cell-based. On the procedure: For the biofilm inhibition assay the antimicrobial activity test was done in 1/10 MHB using A. baumannii treated with the respective dilutions of NCR169C17–38, meropenem or polymixin B for 24 h. After taking the 5 μl samples at the end of the treatment and placed on LB agar to detect bacterial growth, the rest of the grown bacterial suspensions were discarded from the plate and the remaining biofilm on the walls of the plate was then washed three times with sterile water and stained using 1 % Crystal Violet (CV) for 15 min to visualize the produced biofilm. The non-adherent CV dye was then removed by washing with water three times. The plate was left for complete drying, then the biofilm-bound CV dye was dissolved in 200 µl of 30 % acetic-acid with shaking over 15 min. The absorbance was measured at OD550 using a HIDEX Plate Reader (Hidex Sense Microplate Reader with Plate Reader Software version 5064, Hidex, Finland). All measurements were repeated three times.
We examined the capacity of NCR169C17–38 to inhibit biofilm formation by Acinetobacter baumannii, a pathogen well known for its robust biofilm production and high level of antibiotic resistance. […] Additionally, at the end of the experiment we determined the quantity of the biofilm and thereby evaluated their ability to inhibit biofilm formation during culturing the bacteria in the presence of different concentrations of the agents (Fig. 1.A). We tested concentrations of NCR169C17–38 ranging from 25 μM to 0.4 μM, meropenem from 100 μM to 1.6 μM and polymyxin B from 3.1 μM to 0.05 μM.

In series [3] the test system is A. baumannii. Format: cell-based, Acinetobacter baumannii. The settings on record: 8 h. On the procedure: (§1) For serum stability test human blood was purchased from the Regional Blood Centre in Szeged (the use of human blood has been authorized by the Regional Hungarian Ethics Committee and approved by the Ethics Review Sector of DG RTD (European Commission) in connection with EK’s ERC AdG SymBiotics). The cells from 10 ml of EDTA-blood were centrifuged at 1500 × g for 1 min and washed several times in TBS buffer (10 mM Tris, pH: 7.2, 150 mM NaCl) until the supernatant, representing the serum, became colorless. The NCR169C17–38 peptide was added to the serum at 1:1 ratio and incubated at room temperature for 8 h. Subsequently, serial 2-fold dilutions of the peptide were prepared in PPB, with concentrations ranging from 100 to 0.2 µM and antimicrobial assay was done to determine the MBC values. Experiments were done in three biological replicates.

Series [4] concerns mouse macrophage J774.2 cells. The note with it: cited from earlier work.
The subject of series [5] is Escherichia coli (ATCC 8739). It counts as cell-based. The settings on record: ATCC 8739. An excerpt: The Gram-positive strains Enterococcus faecalis (ATCC 29212), Staphylococcus aureus (HNCMO112011), and Listeria monocytogenes (ATCC 19111), and the Gram-negative strains Pseudomonas aeruginosa (ATCC 27853), Escherichia coli (ATCC 8739), Salmonella enterica (ATCC 13076), Klebsiella pneumoniae (NCTC 13440), and Acinetobacter baumannii (ATCC 17978) were obtained from ATCC (United States) and NCTC (National Collection of Type Cultures – England).
Minimal bactericidal concentrations (MBC) of peptides and reference antibiotics were determined in 20 mM potassium phosphate buffer (PPB, pH 7.4) and Mueller–Hinton broth (MHB) as described by ([Jenei et al., 2020]). Briefly, bacterial cultures were grown to mid-log phase, washed, adjusted to OD₆₀₀ = 0.1 (∼10⁷ CFU/mL), added 10 μl of it into 100 μl mixture and incubated in 96-well plates with 2-fold serial dilutions of peptides or antibiotics. After incubation at 37 °C with shaking, bacterial viability was assessed by plating 5 μL aliquots on LB agar. MBC was defined as the lowest concentration yielding no colony growth. […]
Three biological replicates were treated at OD600 = 0.2 with a final concentration of 1.6 µM NCR169C17–38 peptide for 20 min, while the control samples were treated with the same amount of water for 20 min. […] Quality and quantity was detected using 2200 TapeStation (Agilent) and Qubit RNA BR Assay […]

Series [6] deals with E. coli. It counts as cell-based, Escherichia coli. The note with it: 8 h. The procedure:
as §1

The subject of series [7] is human keratinocyte HaCaT cells. The note with it: cited from earlier work.

Values after ≈ are worked out from the molar mass of the structure shown. Read-outs that look alike come from different tables or passages of the source. Residues, ends and D or L forms follow the SMILES beside them.

Take `CC[C@H](C)[C@H](NC(=O)[C@H](CCCCN)NC(=O)[C@H](Cc1ccccc1)NC(=O)[C@H](CC(C)C)NC(=O)[C@@H]1CCCN1C(=O)[C@H](CCCCN)NC(=O)[C@H](CCCCN)NC(=O)[C@H](CO)NC(=O)[C@@H](N)CCCCN)C(=O)N[C@@H](Cc1c[nH]c2ccccc12)C(=O)N[C@@H](CCCCN)C(=O)N[C@@H](CS)C(=O)N[C@H](C(=O)N[C@@H](CCC(=O)O)C(=O)N[C@@H](CC(N)=O)C(=O)N[C@H](C(=O)N[C@@H](CS)C(=O)N[C@H](C(=O)N[C@@H](CC(C)C)C(=O)N[C@@H](Cc1c[nH]c2ccccc12)C(=O)N[C@@H](Cc1ccc(O)cc1)C(=O)N[C@@H](CCCCN)C(N)=O)C(C)C)C(C)C)C(C)C` [NCR169C17–38] (H-KSKKPLFKIWKCVENVCVLWYK-NH2; N-terminus assumed): the “degradation of pre-formed biofilm” value in series [1] (A. baumannii biofilm pre-formed 24 h, 24 h of treatment, Crystal Violet OD550) is recorded as “successful even at sub-MBC level”. Further, the MBC is given as 6.3 µM (≈ 17.3 µg/mL) in series [1] (pre-formed biofilm, read-out: MBC, Eradication test after 3 h); 12.5 µM (≈ 34.2 µg/mL) in series [1] (pre-formed biofilm, read-out: MBC, Eradication test after 24 h); 6.3 µM (≈ 17.3 µg/mL) in series [2] (24 h, read-out: MBC, Inhibition test after 24 h); 6.2 µM (≈ 17 µg/mL) in series [5]. In addition, the “concentration degrading the mature biofilm (sub-MBC level)” value in series [1] (pre-formed biofilm, 72 h) was 3.1 µM. Besides, the “inhibition of biofilm formation (Crystal Violet, OD550)” value in series [2] (A. baumannii, 24 h treatment, NCR169C17–38 25-0.4 μM, meropenem 100-1.6 μM, polymyxin B 3.1-0.05 μM) is given as “remaining effective even at lower doses”. Also, the “MBC after pre-incubation in human serum” value in series [3] worked out at 6.3 µM (≈ 17.3 µg/mL); in series [6] it was 3.1 µM (≈ 8.49 µg/mL). The cytotoxicity result in series [4] and in series [7] was “non-cytotoxic” throughout.
